From US8569472B2, “Efficient cell culture system for hepatitis C virus genotype 6A” (priority 2007, dated 2013)

Test system: JFH1-based recombinants of genotypes 1a, 1b, 2a, 2b, and 6a
Format: cell-based, hepatitis C virus
Conditions: 500 IU/mL interferon-α2b, 20 μM ribavirin or 50 μM amantadine; for decrease in supernatant HCV RNA titers / decrease in the number of infected cells: 72 hrs, Huh7.5 cultures infected with genotype 1a/1b, 2a/2b and 6a recombinants

SMILES	antiviral effect of treatment (infected cells and supernatant HCV RNA titers)	decrease in supernatant HCV RNA titers	decrease in the number of infected cells
NC12CC3CC(CC(C3)C1)C2 [amantadine]	no apparent effect	did not decrease	did not decrease
NC(=O)c1ncn([C@@H]2O[C@H](CO)[C@@H](O)[C@H]2O)n1 [ribavirin]	no apparent effect	did not decrease	did not decrease
